Measured values published in patent US20160355530A1, “HEPATITIS C INHIBITORS AND USES THEREOF” (AbbVie Inc., priority 2010, published 2016).
Where two headings read alike, the source gives them in different places.

Assays:
[1] = biological target: T1, HCV NS5B polymerase 1a-H77 (Hepatitis C virus genotype 1a, UniProt P27958); experiment: biochemical; design: species or system HCV genotype 1a; settings: enzyme, strain 1a H77; read-out: HCV Polymerase Strain 1a H77 IC50
T1 construct: six-histidine tag; made in house; host or cells: E. coli
Outline: (§1)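 Incorporation of [3H]UTP (0.284 μM), alongside 20 μM each CTP and ATP, into RNA copied from a 5 nM 2.1 kb genotype 1b negative-strand template was measured after 3 h at 30° C using purified His-tagged NS5B truncated at residue 570. Product was spermine-precipitated, filtered and scintillation-counted; nonlinear regression gave IC50.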

[2] = biological target: T2, HCV NS5B polymerase 1a-H77-C316Y (Hepatitis C virus genotype 1a, UniProt P27958, C2736Y); experiment: biochemical; design: species or system HCV genotype 1a
T2 construct: six-histidine tag; made in house; host or cells: E. coli
Outline: as §1

[3] = test system: HCV NS5B polymerase 1a-H77-C316Y; experiment: biochemical; design: species or system HCV genotype 1a; settings: ratio of enzyme IC50s, 1a H77-C316Y / 1a H77
Outline: as §1

[4] = biological target: T3, HCV NS5B polymerase 1b BK strain (Hepatitis C virus genotype 1b, UniProt P26663); experiment: HCV NS5B polymerase enzymatic inhibition assay, strain 1b BK; format: biochemical; settings: enzyme, strain 1b BK; read-out: HCV Polymerase Strain 1b BK IC50
T3 construct: six-histidine tag; made in house; host or cells: E. coli
Outline: as §1

[5] = test system: HCV 1a-H77 subgenomic replicon; experiment: microbe, parasite or virus in culture; format: cell-based, HCV genotype 1a; settings: Hepatitis C virus, stable replicon
[6] = test system: HCV 1b-BB7 subgenomic replicon; experiment: microbe, parasite or virus in culture; format: cell-based, HCV genotype 1b; settings: Hepatitis C virus, stable replicon
[7] = test system: chimeric replicon with 2a-J6CF-derived NS5B; experiment: microbe, parasite or virus in culture; format: cell-based, HCV genotype 2a; settings: Hepatitis C virus, read-out: 2a chimera 5% FBS EC50
[8] = test system: chimeric replicon with genotype 2b NS5B; experiment: microbe, parasite or virus in culture; format: cell-based, HCV genotype 2b; settings: Hepatitis C virus, read-out: 2b chimera 5% FBS EC50
[9] = test system: chimeric replicon with genotype 3a NS5B; experiment: microbe, parasite or virus in culture; format: cell-based, HCV genotype 3a; settings: Hepatitis C virus, read-out: 3a chimera 5% FBS EC50
[10] = test system: chimeric replicon with genotype 4a NS5B; experiment: microbe, parasite or virus in culture; format: cell-based, HCV genotype 4a; settings: Hepatitis C virus, read-out: 4a chimera 5% FBS EC50
[11] = test system: HCV 1a-H77 transient subgenomic replicon in Huh-7 derived cell line; experiment: microbe, parasite or virus in culture; format: cell-based, HCV genotype 1a; settings: Hepatitis C virus, Huh-7; transient replicon, 5% FBS; read-out: Transient Replicon 1a H77 5% FBS EC50
Outline: (§2)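 Subgenomic replicon RNA (no Neo gene) electroporated into Huh-7-derived cells, plated at 5×10^3 cells/well; a 4 h plate gauged transfection efficiency. Cells exposed to 3-fold compound dilutions (0.5% DMSO) for 4 days at 37° C, then lysed for luciferase readout; EC50 calculated.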

[12] = test system: HCV 1a-H77-C316Y transient subgenomic replicon in Huh-7 derived cell line; experiment: microbe, parasite or virus in culture; format: cell-based, HCV genotype 1a; settings: for EC50: Hepatitis C virus, Huh-7, read-out: Transient Replicon 1a H77-C316Y 5% FBS EC50; for Transient Replicon Fold Resistance C316Y/1a: ratio of transient replicon EC50s, C316Y / 1a H77
Outline: as §2

[13] = 5% FBS, absence of human plasma, read-out: Stable Replicon 1a H77 5% FBS EC50
[14] = strain 1a H77, 5% FBS + 40% human plasma, read-out: 1a H77 5% FBS + 40% Human Plasma EC50
[15] = strain 1a H77, 5% FBS, no human plasma, read-out: 1a H77 5% FBS EC50
[16] = strain 1a H77, 5% FBS, read-out: 1a H77 5% FBS EC50
[17] = strain 1b BB7, 5% FBS + 40% human plasma, read-out: 1b BB7 5% FBS + 40% Human Plasma EC50
[18] = strain 1b BB7, 5% FBS, no human plasma, read-out: 1b BB7 5% FBS EC50
[19] = strain 1b BB7, 5% FBS, read-out: 1b BB7 5% FBS EC50

T1 sequence (P27958 2421-2990): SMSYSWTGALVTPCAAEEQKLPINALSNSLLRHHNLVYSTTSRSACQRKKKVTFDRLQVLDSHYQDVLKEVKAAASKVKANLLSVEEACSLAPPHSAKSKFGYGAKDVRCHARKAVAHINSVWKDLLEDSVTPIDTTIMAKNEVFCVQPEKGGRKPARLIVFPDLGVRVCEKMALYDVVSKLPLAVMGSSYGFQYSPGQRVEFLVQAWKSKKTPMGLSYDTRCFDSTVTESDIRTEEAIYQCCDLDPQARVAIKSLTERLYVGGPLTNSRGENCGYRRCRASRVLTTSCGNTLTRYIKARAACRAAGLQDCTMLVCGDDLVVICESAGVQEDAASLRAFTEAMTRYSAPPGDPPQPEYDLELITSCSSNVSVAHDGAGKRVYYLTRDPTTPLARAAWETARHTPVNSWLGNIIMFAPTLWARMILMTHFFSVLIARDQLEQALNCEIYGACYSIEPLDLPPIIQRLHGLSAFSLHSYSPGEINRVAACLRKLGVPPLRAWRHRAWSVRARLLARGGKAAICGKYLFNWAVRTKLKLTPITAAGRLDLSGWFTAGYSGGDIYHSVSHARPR
T3 sequence (P26663 2420-2989): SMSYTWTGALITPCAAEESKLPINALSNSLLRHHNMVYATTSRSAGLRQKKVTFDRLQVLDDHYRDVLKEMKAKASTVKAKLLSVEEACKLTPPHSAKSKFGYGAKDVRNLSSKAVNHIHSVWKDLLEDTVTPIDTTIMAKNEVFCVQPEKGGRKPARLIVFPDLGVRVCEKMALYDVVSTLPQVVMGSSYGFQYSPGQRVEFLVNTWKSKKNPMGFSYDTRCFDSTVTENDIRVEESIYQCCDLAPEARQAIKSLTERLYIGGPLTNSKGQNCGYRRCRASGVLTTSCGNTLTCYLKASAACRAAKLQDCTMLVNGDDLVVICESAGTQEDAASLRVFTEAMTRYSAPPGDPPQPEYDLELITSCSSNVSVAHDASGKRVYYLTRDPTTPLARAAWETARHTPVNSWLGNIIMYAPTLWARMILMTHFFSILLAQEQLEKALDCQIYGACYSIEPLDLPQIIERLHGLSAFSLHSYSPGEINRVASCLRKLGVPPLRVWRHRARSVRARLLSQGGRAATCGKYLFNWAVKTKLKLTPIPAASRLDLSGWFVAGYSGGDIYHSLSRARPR
T2 sequence (P27958 2421-2990 C2736Y): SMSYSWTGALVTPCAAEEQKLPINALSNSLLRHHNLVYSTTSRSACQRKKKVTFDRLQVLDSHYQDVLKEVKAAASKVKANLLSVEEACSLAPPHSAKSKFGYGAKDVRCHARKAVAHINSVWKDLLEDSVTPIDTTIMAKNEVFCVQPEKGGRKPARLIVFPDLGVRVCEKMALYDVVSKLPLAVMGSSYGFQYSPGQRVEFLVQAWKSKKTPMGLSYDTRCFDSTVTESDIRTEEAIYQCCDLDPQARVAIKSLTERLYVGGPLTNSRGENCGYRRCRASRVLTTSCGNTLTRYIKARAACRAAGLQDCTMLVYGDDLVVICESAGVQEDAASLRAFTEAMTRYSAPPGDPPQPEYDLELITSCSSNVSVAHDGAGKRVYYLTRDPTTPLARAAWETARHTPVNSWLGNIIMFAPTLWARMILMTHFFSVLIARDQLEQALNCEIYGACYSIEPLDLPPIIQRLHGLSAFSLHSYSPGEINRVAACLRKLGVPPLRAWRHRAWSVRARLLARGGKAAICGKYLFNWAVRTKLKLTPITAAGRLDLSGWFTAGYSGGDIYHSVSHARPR

| Compound | IC50 [1] | IC50 [2] | C316Y/1a Fold Resistance [3] | IC50 [4] | EC50 [5, 13] | EC50 [5, 14] | EC50 [5, 15] | EC50 [5, 16] | EC50 [6, 17] | EC50 [6, 18] | EC50 [6, 19] | EC50 [7] | EC50 [8] | EC50 [9] | EC50 [10] | EC50 [11] | EC50 [12] | Transient Replicon Fold Resistance C316Y/1a [12] |
| --- | --- | --- | --- | --- | --- | --- | --- | --- | --- | --- | --- | --- | --- | --- | --- | --- | --- | --- |
| CS(=O)(=O)N(CCCC(N)=O)c1cc2oc(-c3ccc(F)cc3)c(-c3ncc[nH]3)c2cc1C1CC1 [Example 108, 4-{[5-cyclopropyl-2-(4-fluorophenyl)-3-(1H-imidazol-2-yl)-1-benzofuran-6-yl](methylsulfonyl)amino}butanamide] | 3.5 nM | 60 nM | 17 fold | 28 nM | 15.3 nM | 49 nM | 15.3 nM | 15.3 nM | 57 nM | 10.1 nM | 10.1 nM | 156 nM | 187 nM | 11 nM | 104 nM | 7.9 nM | 203 nM | 26 fold |
| CS(=O)(=O)N(CCCS(N)(=O)=O)c1cc2oc(-c3ccc(F)cc3)c(-c3ncc[nH]3)c2cc1C1CC1 [Example 80, 3-{[5-cyclopropyl-2-(4-fluorophenyl)-3-(1H-imidazol-2-yl)-1-benzofuran-6-yl](methylsulfonyl)amino}propane-1-sulfonamide] | 5 nM | 55 nM | 11 fold | 16 nM | 12.1 nM | 52 nM | 12.1 nM | 12.1 nM | 72 nM | 10.7 nM | 10.7 nM | 211 nM | 283 nM | 12.2 nM | 373 nM | 8.3 nM | 162 nM | 20 fold |
| CC(C)(O)C(O)CCN(c1cc2oc(-c3ccc(F)cc3)c(-c3ncc[nH]3)c2cc1C1CC1)S(C)(=O)=O (stereo not drawn) [Example 84, N-[5-cyclopropyl-2-(4-fluorophenyl)-3-(1H-imidazol-2-yl)-1-benzofuran-6-yl]-N-(3,4-dihydroxy-4-methylpentyl)methanesulfonamide] | 3.5 nM | 41 nM | 12 fold | 19 nM | 14.9 nM | 218 nM | 14.9 nM | 14.9 nM | 146 nM | 14.1 nM | 14.1 nM | 103 nM | 30.9 nM | 15.1 nM | 142 nM | 25.4 nM | 184 nM | 7 fold |
| CS(=O)(=O)N(CCCCCO)c1cc2oc(-c3ccc(F)cc3)c(-c3ncc[nH]3)c2cc1C1CC1 [Example 88, N-[5-cyclopropyl-2-(4-fluorophenyl)-3-(1H-imidazol-2-yl)-1-benzofuran-6-yl]-N-(5-hydroxypentyl)methanesulfonamide] | 4 nM | 46 nM | 12 fold | 9 nM | 4.1 nM | 119 nM | 4.1 nM | 4.1 nM | 108 nM | 4.9 nM | 4.9 nM | 25.3 nM | 24.5 nM | 3.2 nM | 33.9 nM | 1.2 nM | 38.2 nM | 32 fold |
| CC1NC(c2c(-c3ccc(F)cc3)oc3cc(N(CCCCO)S(C)(=O)=O)c(C4CC4)cc23)=NO1 (stereo not drawn) [Example 11, N-[5-cyclopropyl-2-(4-fluorophenyl)-3-(5-methyl-4,5-dihydro-1,2,4-oxadiazol-3-yl)-1-benzofuran-6-yl]-N-(4-hydroxybutyl)methanesulfonamide] | 5.9 nM | 30 nM | 5 fold | 20 nM | 8 nM | 100 nM | 8 nM | 8 nM | 199 nM | 10.3 nM | 10.3 nM | 85 nM | 98.5 nM | 16.6 nM | 24.4 nM | 3 nM | 34.4 nM | 11 fold |
| CS(=O)(=O)N(CCC1CCS(=O)(=O)C1)c1cc2oc(-c3ccc(F)cc3)c(C3=NOCN3)c2cc1C1CC1 (stereo not drawn) [Example 149, N-[5-cyclopropyl-3-(4,5-dihydro-1,2,4-oxadiazol-3-yl)-2-(4-fluorophenyl)-1-benzofuran-6-yl]-N-[2-(1,1-dioxidotetrahydrothiophen-3-yl)ethyl]methanesulfonamide] | 3.5 nM | 41 nM | 12 fold | 9 nM | 8.8 nM | 1020 nM | 8.8 nM | 8.8 nM | 643 nM | 4 nM | 4 nM | 54 nM | 34 nM | 7 nM | 21 nM | 7.3 nM | 124 nM | 17 fold |
| CC1NC(c2c(-c3ccc(F)cc3)oc3cc(N(CCS(C)(=O)=O)S(C)(=O)=O)c(C4CC4)cc23)=NO1 (stereo not drawn) [Example 12, N-[5-cyclopropyl-2-(4-fluorophenyl)-3-(5-methyl-4,5-dihydro-1,2,4-oxadiazol-3-yl)-1-benzofuran-6-yl]-N-[2-(methylsulfonyl)ethyl]methanesulfonamide] | 5.5 nM | 43 nM | 8 fold | 17 nM | 42.6 nM | 50 nM | 42.6 nM | 42.6 nM | 82 nM | 11 nM | 11 nM | 285 nM | 221 nM | 26 nM | 73.3 nM | 78 nM | 1220 nM | 16 fold |
